system: human leukocytes (LTB4 production, calcium ionophore stimulated); experiment: Human Leukocyte LTB4 Inhibition Assay; type: cell-based; details: LTB4 by ELISA, read-out: LTB4 HLA IC50
Method: Human Leukocyte LTB4 Inhibition Assay
A non-limiting example of a human leukocyte inhibition assay is as follows; Blood was drawn from consenting human volunteers into heparanized tubes and 3% dextran 0.9% saline ⅓ rd volume added. After sedimentation of red blood cells a hypotonic lysis of remaining red blood cells was performed and leukocytes sedimented at 1200 rpm. The pellet was resuspended at 1.25×10^5 cells/ml and aliquoted into wells containing 1 μL 100% DMSO (vehicle) or 2.5 μL drug in 100% DMSO. Samples were incubated for 5 minutes at 37° C. and 2 μL calcium ionophore […] (from a 50 mM DMSO stock diluted just prior to the assay in Hanks balanced salt solution (Invitrogen)) to 1.25 mM) was added, solutions mixed and incubated for 30 minutes at 37° C. Samples were centrifuged at 1,200 rpm (−200×g) for 10 minutes at 4° C., plasma removed and a 1:4 dilution assayed for LTB4 concentration using ELISA (Assay Designs). Drug concentrations to achieve 50% inhibition (IC50's) of vehicle LTB4 were determined by nonlinear regression (Graphpad Prism) of % inhibition versus log drug concentration.

IC50 [µM] | Structure (SMILES)
< 0.3 | CCC(O)(c1cn(Cc2ccn3c(-c4ccc(F)cc4)c(C#N)cc3c2)nn1)C(F)(F)F (stereo not shown) [Compound 1-22, 3-(4-Fluoro-phenyl)-7-[4-(1-hydroxy-1-trifluoromethyl-propyl)-[1,2,3]triazol-1-ylmethyl]-indolizine-2-carbonitrile]

same assay, conditions: Leukocyte, LTB4 by ELISA, read-out: LTB4 HLA IC50

Structure (SMILES) | IC50 [µM]
CCC(O)(c1cn(Cc2ccn3c(-c4ccc(F)cc4)c(COC)cc3c2)nn1)C(F)(F)F (stereo not shown) [Compound 1-44, 1,1,1-Trifluoro-2-{1-[3-(4-fluoro-phenyl)-2-methoxymethyl-indolizin-7-ylmethyl]-1H-[1,2,3]triazol-4-yl}-butan-2-ol] | < 0.3
CCC(O)(c1cn(Cc2ccn3c(C(C)=O)c(C(=O)OC)cc3c2)nn1)C(F)(F)F (stereo not shown) [Compound 1-66, 3-Acetyl-7-[4-(1-hydroxy-1-trifluoromethyl-propyl)-[1,2,3]triazol-1-ylmethyl]-indolizine-2-carboxylic acid methyl ester] | < 0.3
CCOC(=O)c1cc2cc(Cn3cc(C(O)(CC)C(F)(F)F)nn3)ccn2c1-c1ccc(OCC)nc1 (stereo not shown) [Compound 1-56, 3-(6-Ethoxy-pyridin-3-yl)-7-[4-(1-hydroxy-1-trifluoromethyl-propyl)-[1,2,3]triazol-1-ylmethyl]-indolizine-2-carboxylic acid ethyl ester] | < 0.3
CCOC(=O)c1cc2cc(Cn3cc(C(O)(CC)C(F)(F)F)nn3)ccn2c1-c1cccnc1 (stereo not shown) [Compound 1-24, 7-[4-(1-Hydroxy-1-trifluoromethyl-propyl)-[1,2,3]triazol-1-ylmethyl]-3-pyridin-3-yl-indolizine-2-carboxylic acid ethyl ester] | < 0.3
CCC(O)(c1cn(Cc2ccn3c(-c4ccc(F)cc4)c(CNCCC#N)cc3c2)nn1)C(F)(F)F (stereo not shown) [Compound 1-42, 3-({3-(4-Fluoro-phenyl)-7-[4-(1-hydroxy-1-trifluoromethyl-propyl)-[1,2,3]triazol-1-ylmethyl]-indolizin-2-ylmethyl}-amino)-propionitrile] | < 0.3
CCC(O)(c1cn(Cc2ccn3c(-c4ccc(C)nc4)c(C#N)cc3c2)nn1)C(F)(F)F (stereo not shown) [Compound 1-72, 7-[4-(1-Hydroxy-1-trifluoromethyl-propyl)-[1,2,3]triazol-1-ylmethyl]-3-(6-methyl-pyridin-3-yl)-indolizine-2-carbonitrile] | < 0.3
CCC(O)(c1cn(Cc2ccn3c(-c4ccc(F)cc4)c(/C=C/C(=O)OC)cc3c2)nn1)C(F)(F)F (stereo not shown) [Compound 1-39, (E)-3-{3-(4-Fluoro-phenyl)-7-[4-(1-hydroxy-1-trifluoromethyl-propyl)-[1,2,3]triazol-1-ylmethyl]-indolizin-2-yl}-acrylic acid methyl ester] | < 0.3
CCC(O)(c1cn(Cc2ccn3c(-c4ccnc(C)c4)c(C(N)=O)cc3c2)nn1)C(F)(F)F (stereo not shown) [Compound 1-64, 7-[4-(1-Hydroxy-1-trifluoromethyl-propyl)-[1,2,3]triazol-1-ylmethyl]-3-(2-methyl-pyridin-4-yl)-indolizine-2-carboxylic acid amide] | > 1
CCC(O)(c1cn(Cc2ccn3c(-c4ccc(F)cc4)c(C(N)=O)c(Cl)c3c2)nn1)C(F)(F)F (stereo not shown) [Compound 1-61, 1-Chloro-3-(4-fluoro-phenyl)-7-[4-(1-hydroxy-1-trifluoromethyl-propyl)-[1,2,3]triazol-1-ylmethyl]-indolizine-2-carboxylic acid amide] | < 0.3
CCOC(=O)c1nc2cc(Cn3cc(C(O)(CC)C(F)(F)F)nn3)ccn2c1-c1ccc(F)cc1 (stereo not shown) [Compound 1-13, 3-(4-Fluoro-phenyl)-7-[4-(1-hydroxy-1-trifluoromethyl-propyl)-[1,2,3]triazol-1-ylmethyl]-imidazo[1,2-a]pyridine-2-carboxylic acid ethyl ester] | < 0.3
CCC(O)(c1cn(Cc2ccn3c(C(C)=O)c(C(N)=O)cc3c2)nn1)C(F)(F)F (stereo not shown) [Compound 1-67, 3-Acetyl-7-[4-(1-hydroxy-1-trifluoromethyl-propyl)-[1,2,3]triazol-1-ylmethyl]-indolizine-2-carboxylic acid amide] | > 1

Now from value to compound:

IC50 [µM] | Structure (SMILES)
< 0.3 | CCOC(=O)c1cc2cc(CNc3nnc(C(O)(CC)C(F)(F)F)o3)ccn2c1-c1ccc(F)cc1 (stereo not shown) [Compound 1-11, 3-(4-Fluoro-phenyl)-7-{[5-(1-hydroxy-1-trifluoromethyl-propyl)-[1,3,4]oxadiazol-2-ylamino]-methyl}-indolizine-2-carboxylic acid ethyl ester]
< 0.3 | CCC(O)(c1nnc(NCc2ccn3c(-c4ccc(F)cc4)c(C(N)=O)c(Br)c3c2)o1)C(F)(F)F (stereo not shown) [Compound 1-17, 1-Bromo-3-(4-fluoro-phenyl)-7-{[5-(1-hydroxy-1-trifluoromethyl-propyl)-[1,3,4]oxadiazol-2-ylamino]-methyl}-indolizine-2-carboxylic acid amide]
< 0.3 | CCC(O)(c1cn(Cc2ccn3c(Cl)c(C#N)cc3c2)nn1)C(F)(F)F (single isomer, unassigned) [Compound 1-88, 3-Chloro-7-[4-(1-hydroxy-1-trifluoromethyl-propyl)-[1,2,3]triazol-1-ylmethyl]-indolizine-2-carbonitrile]
< 0.3 | CCC(O)(c1cn(Cc2ccn3c(-c4ccnc(C)c4)c(C#N)cc3c2)nn1)C(F)(F)F (stereo not shown) [Compound 1-65, 7-[4-(1-Hydroxy-1-trifluoromethyl-propyl)-[1,2,3]triazol-1-ylmethyl]-3-(2-methyl-pyridin-4-yl)-indolizine-2-carbonitrile]
0.3 to 1 | CCC(O)(c1cn(Cc2ccn3c(-c4cccc(S(C)(=O)=O)c4)c(C#N)cc3c2)nn1)C(F)(F)F (stereo not shown) [Compound 1-49, 7-[4-(1-Hydroxy-1-trifluoromethyl-propyl)-[1,2,3]triazol-1-ylmethyl]-3-(3-methanesulfonyl-phenyl)-indolizine-2-carbonitrile]
< 0.3 | CCC(O)(c1cn(Cc2ccn3c(-c4ccc(OC)nc4)c(C(N)=O)cc3c2)nn1)C(F)(F)F (single isomer, unassigned) [Compound 1-78, 7-[4-(1-Hydroxy-1-trifluoromethyl-propyl)-[1,2,3]triazol-1-ylmethyl]-3-(6-methoxy-pyridin-3-yl)-indolizine-2-carboxylic acid amide]
< 0.3 | CCC(O)(c1cn(Cc2ccn3c(-c4cccnc4)c(C#N)cc3c2)nn1)C(F)(F)F (stereo not shown) [Compound 1-26, 7-[4-(1-Hydroxy-1-trifluoromethyl-propyl)-[1,2,3]triazol-1-ylmethyl]-3-pyridin-3-yl-indolizine-2-carbonitrile]
< 0.3 | CCC(O)(c1cn(Cc2ccn3c(-c4ccc(F)cc4)c(C=O)cc3c2)nn1)C(F)(F)F (stereo not shown) [Compound 1-33, 3-(4-Fluoro-phenyl)-7-[4-(1-hydroxy-1-trifluoromethyl-propyl)-[1,2,3]triazol-1-ylmethyl]-indolizine-2-carbaldehyde]
< 0.3 | CCC(O)(c1cn(Cc2ccn3c(-c4ccc(F)cc4)c(CO)cc3c2)nn1)C(F)(F)F (stereo not shown) [Compound 1-30, 1,1,1-Trifluoro-2-{1-[3-(4-fluoro-phenyl)-2-hydroxymethyl-indolizin-7-ylmethyl]-1H-[1,2,3]triazol-4-yl}-butan-2-ol]
> 1 | CCC(O)(c1cn(Cc2ccn3c(-c4ccc(C)nc4)c(C(N)=O)cc3c2)nn1)C(F)(F)F (stereo not shown) [Compound 1-71, 7-[4-(1-Hydroxy-1-trifluoromethyl-propyl)-[1,2,3]triazol-1-ylmethyl]-3-(6-methyl-pyridin-3-yl)-indolizine-2-carboxylic acid amide]
